Data from the Kinase Knowledgebase extract (Sharma et al. 2016).

Tests used:
[1] = biological target: MAPK14 (human) (UniProt Q16539); assay: Enzyme Assay
[2] = biological target: CDK2 (human) (UniProt P24941); assay: Enzyme Assay
[3] = biological target: ROCK2 (human) (UniProt O75116); assay: Enzyme Assay
[4] = biological target: EGFR (human) (UniProt P00533)
Chain of EGFR (human) (P00533 whole entry, looked up): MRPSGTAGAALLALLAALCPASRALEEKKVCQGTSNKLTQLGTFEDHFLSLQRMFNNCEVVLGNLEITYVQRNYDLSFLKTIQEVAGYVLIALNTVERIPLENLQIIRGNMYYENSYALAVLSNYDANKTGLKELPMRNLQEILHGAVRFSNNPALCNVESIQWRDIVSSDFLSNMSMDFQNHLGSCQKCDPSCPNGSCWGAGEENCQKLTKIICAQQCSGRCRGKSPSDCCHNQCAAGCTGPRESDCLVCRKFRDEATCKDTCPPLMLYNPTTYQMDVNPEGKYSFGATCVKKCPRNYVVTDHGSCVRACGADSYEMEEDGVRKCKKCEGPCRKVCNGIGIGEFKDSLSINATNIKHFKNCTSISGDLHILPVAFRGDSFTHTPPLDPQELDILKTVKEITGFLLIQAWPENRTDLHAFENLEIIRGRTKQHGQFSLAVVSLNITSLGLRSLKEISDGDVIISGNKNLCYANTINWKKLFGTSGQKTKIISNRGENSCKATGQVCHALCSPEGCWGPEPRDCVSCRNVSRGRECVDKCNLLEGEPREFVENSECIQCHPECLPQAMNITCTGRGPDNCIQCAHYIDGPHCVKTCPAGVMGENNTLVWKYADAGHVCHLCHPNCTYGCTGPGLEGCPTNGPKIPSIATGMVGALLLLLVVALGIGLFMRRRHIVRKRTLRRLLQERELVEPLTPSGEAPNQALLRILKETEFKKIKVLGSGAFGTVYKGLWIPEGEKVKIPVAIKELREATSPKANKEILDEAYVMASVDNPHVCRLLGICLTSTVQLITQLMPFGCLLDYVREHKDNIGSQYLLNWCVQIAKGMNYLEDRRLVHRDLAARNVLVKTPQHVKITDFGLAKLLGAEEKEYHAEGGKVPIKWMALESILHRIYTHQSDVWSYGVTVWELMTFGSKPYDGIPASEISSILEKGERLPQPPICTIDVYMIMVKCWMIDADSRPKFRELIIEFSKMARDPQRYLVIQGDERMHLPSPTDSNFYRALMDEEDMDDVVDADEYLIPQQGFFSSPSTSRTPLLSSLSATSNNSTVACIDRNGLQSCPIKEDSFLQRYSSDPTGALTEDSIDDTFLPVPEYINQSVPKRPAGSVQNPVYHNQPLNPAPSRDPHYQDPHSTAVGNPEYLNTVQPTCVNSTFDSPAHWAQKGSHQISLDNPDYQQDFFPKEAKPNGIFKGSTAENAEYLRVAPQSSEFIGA

Chain of ROCK2 (human) (O75116 whole entry, looked up): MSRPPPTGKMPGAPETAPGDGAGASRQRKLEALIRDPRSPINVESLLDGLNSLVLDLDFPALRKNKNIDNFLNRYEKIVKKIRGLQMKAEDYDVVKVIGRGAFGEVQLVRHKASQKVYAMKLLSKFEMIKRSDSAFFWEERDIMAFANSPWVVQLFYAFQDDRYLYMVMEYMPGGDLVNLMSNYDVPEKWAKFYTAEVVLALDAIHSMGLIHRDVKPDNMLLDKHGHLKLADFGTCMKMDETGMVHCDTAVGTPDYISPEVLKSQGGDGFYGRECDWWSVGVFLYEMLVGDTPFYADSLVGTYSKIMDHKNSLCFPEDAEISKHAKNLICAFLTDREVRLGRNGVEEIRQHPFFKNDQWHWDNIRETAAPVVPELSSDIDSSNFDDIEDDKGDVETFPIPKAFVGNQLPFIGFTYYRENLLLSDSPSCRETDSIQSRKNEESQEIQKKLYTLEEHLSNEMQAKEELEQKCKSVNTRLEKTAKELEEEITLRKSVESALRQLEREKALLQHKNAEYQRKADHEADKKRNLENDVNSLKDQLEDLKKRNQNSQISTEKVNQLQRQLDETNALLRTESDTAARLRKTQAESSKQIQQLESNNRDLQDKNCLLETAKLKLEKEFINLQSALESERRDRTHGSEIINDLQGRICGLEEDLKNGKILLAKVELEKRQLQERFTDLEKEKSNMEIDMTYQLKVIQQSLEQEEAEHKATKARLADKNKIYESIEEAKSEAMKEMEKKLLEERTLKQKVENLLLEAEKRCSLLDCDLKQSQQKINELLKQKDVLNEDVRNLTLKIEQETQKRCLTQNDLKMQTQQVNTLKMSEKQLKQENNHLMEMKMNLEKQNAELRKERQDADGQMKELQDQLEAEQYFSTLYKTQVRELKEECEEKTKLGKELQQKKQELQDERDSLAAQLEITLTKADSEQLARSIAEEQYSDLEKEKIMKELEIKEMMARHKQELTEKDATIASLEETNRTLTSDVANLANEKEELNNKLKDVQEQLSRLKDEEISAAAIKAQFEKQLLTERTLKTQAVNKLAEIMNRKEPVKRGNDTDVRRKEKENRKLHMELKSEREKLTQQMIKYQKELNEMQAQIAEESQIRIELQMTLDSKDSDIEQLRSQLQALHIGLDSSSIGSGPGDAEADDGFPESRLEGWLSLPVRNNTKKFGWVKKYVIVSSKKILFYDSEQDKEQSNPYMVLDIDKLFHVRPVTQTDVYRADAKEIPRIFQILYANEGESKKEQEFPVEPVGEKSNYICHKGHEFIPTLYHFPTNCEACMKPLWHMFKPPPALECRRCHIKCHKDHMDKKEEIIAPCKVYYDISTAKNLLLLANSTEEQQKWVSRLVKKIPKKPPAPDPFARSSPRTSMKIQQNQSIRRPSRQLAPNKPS
Chain of MAPK14 (human) (Q16539 whole entry, looked up): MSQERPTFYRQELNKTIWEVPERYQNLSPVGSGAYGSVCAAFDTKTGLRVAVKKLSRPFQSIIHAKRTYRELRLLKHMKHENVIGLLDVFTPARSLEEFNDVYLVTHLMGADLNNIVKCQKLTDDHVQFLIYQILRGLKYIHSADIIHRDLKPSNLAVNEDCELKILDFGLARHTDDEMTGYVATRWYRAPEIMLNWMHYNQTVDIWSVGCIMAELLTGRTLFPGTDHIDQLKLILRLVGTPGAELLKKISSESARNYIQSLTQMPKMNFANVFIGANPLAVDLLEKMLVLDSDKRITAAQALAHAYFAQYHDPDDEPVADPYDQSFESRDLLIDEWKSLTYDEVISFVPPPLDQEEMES

| SMILES | Ki [1] | Ki [2] | Ki [3] | Ki [4] |
| --- | --- | --- | --- | --- |
| CC(C)(C)c1cc(NC(=O)Nc2cccc3ccccc23)n(-c2cccc(C(=O)N(CCN)CCO)c2)n1 | 631 nM | – | – | – |
| CC(C)(C)c1cc(NC(=O)C(=O)c2cccc3ccccc23)n(-c2ccc(OCC(=O)NCCO)cc2)n1 | 631 nM | – | – | – |
| O=C(Cc1cccs1)Nc1nc2ccccc2s1 | 3980 nM | – | – | – |
| NC(=O)c1ccc2nc(-c3ccc([N+](=O)[O-])o3)cn2c1 | 3160 nM | – | – | – |
| CC(C)CC(NC(=O)c1cccc(-n2nc(C(C)(C)C)cc2NC(=O)Nc2cccc3ccccc23)c1)C(N)=O (stereo unspecified) | 794 nM | – | – | – |
| Cc1cc(=O)[nH]c2[nH]nc(-c3cccc(C(F)(F)F)c3)c12 | 398 nM | – | – | – |
| Cc1cc(=O)[nH]nc1-c1ccc(NC(=O)Nc2cc(C(F)(F)F)ccc2F)c(Cl)c1 | 100 nM | – | – | – |
| CC(=O)n1ncc2cc(N)ccc21 | 7940 nM | – | – | – |
| CC(C)(C)c1cc(NC(=O)C(=O)c2cccc3ccccc23)n(-c2ccc(OCCC(N)=O)cc2)n1 | 631 nM | – | – | – |
| NC(=O)c1ccc(-c2ccnc(N)n2)cc1N1CCCCC1 | – | 1260 nM | 1580 nM | – |
| CN(Cc1ccccc1)c1cc(-c2c[nH]c3ncccc23)cc(Cl)n1 | – | 31.6 nM | 20 nM | – |
| CC(C)(C)c1cc(NC(=O)c2cc3ccccc3s2)n(-c2ccc(OCC(=O)O)cc2)n1 | 2510 nM | – | – | – |
| NC(=O)c1ccc(Nc2ncnc3[nH]cc(-c4ccccc4)c23)cc1 | – | 501 nM | 251 nM | – |
| NC(=O)Cn1cc(-c2cc(-c3cc4ccccc4s3)c3[nH]ncc3c2)c2nc(N)ncc21 | – | 398 nM | 316 nM | – |
| O=C(Nc1cc(-c2c[nH]c3ncccc23)cc(Cl)n1)c1ccccc1 | 3160 nM | – | > 1000 nM | – |
| COCCN(CCOC)c1cc(-c2c[nH]c3ncccc23)cc(Cl)n1 | – | 2000 nM | 39.8 nM | – |
| c1cnc2[nH]cc(-c3ccnc(NCC4CCCCC4)n3)c2c1 | – | 3.98 nM | 6.31 nM | – |
| O=C1Nc2ccccc2Nc2cc(-c3ccncc3F)ccc21 | – | 398 nM | 126 nM | – |
| CCCCNc1cc(-c2c[nH]c3ncccc23)ncn1 | – | 200 nM | 20 nM | – |
| Cc1ccc(Nc2nccc(Nc3ccccc3C(=O)O)n2)cc1F | – | 398 nM | > 7940 nM | – |

| SMILES | Ki [1] | Ki [2] | Ki [3] | Ki [4] |
| --- | --- | --- | --- | --- |
| c1ccc(-c2ncc3ccccn23)cc1 | 50100 nM | – | – | – |
| CC(C)(C)c1cc(NC(=O)c2cc3ccccc3s2)n(-c2cccc(OCC(=O)O)c2)n1 | 794 nM | – | – | – |
| CCCCCCCCCCCCOc1ccc(NC(=N)N)cc1NC(=N)N | – | 5010 nM | 3160 nM | – |
| CCCCNc1cc(-c2ccncc2)cc2[nH]nc(N)c12 | – | 200 nM | 63.1 nM | – |
| COc1cc2ncn(-c3cc(OCc4ccccc4C(F)(F)F)c(C(N)=O)s3)c2cc1OC | – | – | > 7940 nM | 251 nM |
| COc1ccc(C(=O)Nc2n[nH]c3ccc(-c4cn(Cc5ccccc5)nn4)cc23)cc1OC | – | 12.6 nM | 794 nM | – |
| Cc1ccc(-c2cc(-c3cc(Br)ccc3O)[nH]c(=O)c2C#N)s1 | 2510 nM | – | – | – |
| CN(C)c1ccc(-c2c(-c3ccc4[nH]nc(N)c4c3)nnn2Cc2ccccc2)cc1 | – | 126 nM | 20 nM | – |
| O=C1Nc2ccccc2Nc2cc(-c3ccncc3Cl)ccc21 | – | 501 nM | 631 nM | – |
| CCN(CCN(C)C)C(=O)c1cccc(-n2nc(C(C)(C)C)cc2NC(=O)Nc2cccc3ccccc23)c1 | 794 nM | – | – | – |
| NC(=O)c1ccc(-c2ccncc2)cc1NCc1cccc(F)c1 | – | 3160 nM | 5010 nM | – |
| Cc1ccc2nccc(NC(=O)Nc3cccc(C(F)(F)F)n3)c2c1 | – | 79.4 nM | > 6310 nM | – |
| O=C(O)c1ccccc1Nc1ncnc(Nc2ccc3cn[nH]c3c2)n1 | – | 316 nM | > 5010 nM | – |
| COc1c(-c2nc3ccccc3[nH]2)c(O)cc2oc(C)cc(=O)c12 | 3980 nM | – | – | – |
| Fc1cccc(CNc2ncnc3[nH]cnc23)c1 | 15800 nM | – | – | – |
| OCCNc1cc(-c2c[nH]c3ncccc23)cc(Cl)n1 | – | 316 nM | 20 nM | – |
| Fc1cccc(-c2c[nH]c3ncccc23)c1 | – | 1260 nM | 316 nM | – |
| Nc1ccc2cc(NCCc3ccccc3)cc(Nc3ncccn3)c2n1 | 2510 nM | – | – | – |
| COc1ccc(C2=NNc3cccc4c(OC)ccc2c34)cc1OC | 501 nM | – | – | – |
| CCC(=O)Nc1ccc(C(=O)N2CCNCC2)c(O)c1 | 1000 nM | – | – | – |
